In article PMC10667598 (Scientific Reports, 2023):

Biological target: T1, VcCBP (Vibrio cholerae, UniProt Q9KUA3)
T1 construct: gene VC_0620
T1 sequence (Q9KUA3 28-556 limits assumed): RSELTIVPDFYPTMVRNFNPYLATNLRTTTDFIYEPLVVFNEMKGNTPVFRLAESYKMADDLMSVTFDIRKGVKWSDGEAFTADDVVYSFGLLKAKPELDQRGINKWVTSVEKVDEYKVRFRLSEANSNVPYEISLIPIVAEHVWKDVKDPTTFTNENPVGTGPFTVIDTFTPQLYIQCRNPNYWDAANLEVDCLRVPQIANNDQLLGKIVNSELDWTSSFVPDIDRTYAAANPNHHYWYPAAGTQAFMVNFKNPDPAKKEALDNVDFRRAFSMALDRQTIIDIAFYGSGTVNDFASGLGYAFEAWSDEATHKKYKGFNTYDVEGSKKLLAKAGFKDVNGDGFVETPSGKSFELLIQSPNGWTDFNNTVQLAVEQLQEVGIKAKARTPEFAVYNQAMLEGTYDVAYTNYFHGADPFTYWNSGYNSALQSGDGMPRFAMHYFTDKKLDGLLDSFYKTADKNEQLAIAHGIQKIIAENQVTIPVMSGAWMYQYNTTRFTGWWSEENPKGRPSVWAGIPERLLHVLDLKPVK

Question: Which Kd does the source give for `CC(=O)N[C@H]1[C@H](O[C@H]2[C@H](O)[C@@H](NC(C)=O)C(O)O[C@@H]2CO)O[C@H](CO)[C@@H](O)[C@@H]1O` (stereo partly shown) [(GlcNAc)2] here?
Answer: 245 nM
